Experimental data as given in patent US9290451B2 (Hoffmann-La Roche Inc., priority 2011, dated 2016).
pEC50: −log10 of the molar value.

What was measured:
human CB2 receptors = human CB2 receptors (Homo sapiens (Human), UniProt P34972); test: cAMP assay, CHO cells expressing human CB2 receptors; type: cell-based; details: CHO cells expressing human CB2, cAMP; read-out: human CB2 EC50
Description: (§1) CHO cells expressing human CB1 or CB2 receptors are seeded 17-24 hours prior to the experiment 50.000 cells per well in a black 96 well plate with flat clear bottom (Corning Costar #3904) in DMEM (Invitrogen No. 31331), 1×HT supplement, with 10% fetal calf serum and incubated at 5% CO2 and 37° C. in a humidified incubator. The growth medium was exchanged with Krebs Ringer Bicarbonate buffer with 1 mM IBMX and incubated at 30° C. for 30 min Compounds were added to a final assay volume of 100 μl and incubated for 30 min at 30° C. Using the cAMP-Nano-TRF detection kit the assay (Roche Diagnostics) was stopped by the addition of 50 μl lysis reagent (Tris, NaCl, 1.5% Triton X100, 2.5% NP40, 10% NaN3) and 50 μl detection solutions (20 μM mAb Alexa700-cAMP 1:1, and 48 μM Ruthenium-2-AHA-cAMP) and shaken for 2 h at room temperature. The time-resolved energy transfer is measured by a TRF reader (Evotec Technologies GmbH), equipped with a ND:YAG laser as excitation source. The plate is measured twice with the excitation at 355 nm and at the emission with a delay of 100 ns and a gate of 100 ns, total exposure time 10 s at 730 (bandwidth 30 nm) or 645 nm (bandwidth 75 nm), respectively. The FRET signal is calculated as follows: FRET=T730-Alexa730-P(T645-B645) with P═Ru730-B730/Ru645-B645, where T730 is the test well measured at […], T645 is the test well measured at 645 nm, B730 and B645 are the buffer controls at 730 nm and 645 nm, respectively. cAMP content is determined from the function of a standard curve spanning from 10 μM to 0.13 nM cAMP.
(§2) EC50 values were determined using Activity Base analysis (ID Business Solution, Limited). The EC50 values for a wide range of cannabinoid agonists generated from this assay for reference compounds were in agreement with the values published in the scientific literature.

human CB1 receptors = human CB1 receptors (Homo sapiens (Human), UniProt P21554); test: cAMP assay, CHO cells expressing human CB1 receptors; type: cell-based; details: CHO cells expressing human CB1, cAMP; read-out: human CB1 EC50
Description: as §1, §2

human CB1 receptors, sequence (P21554 whole entry): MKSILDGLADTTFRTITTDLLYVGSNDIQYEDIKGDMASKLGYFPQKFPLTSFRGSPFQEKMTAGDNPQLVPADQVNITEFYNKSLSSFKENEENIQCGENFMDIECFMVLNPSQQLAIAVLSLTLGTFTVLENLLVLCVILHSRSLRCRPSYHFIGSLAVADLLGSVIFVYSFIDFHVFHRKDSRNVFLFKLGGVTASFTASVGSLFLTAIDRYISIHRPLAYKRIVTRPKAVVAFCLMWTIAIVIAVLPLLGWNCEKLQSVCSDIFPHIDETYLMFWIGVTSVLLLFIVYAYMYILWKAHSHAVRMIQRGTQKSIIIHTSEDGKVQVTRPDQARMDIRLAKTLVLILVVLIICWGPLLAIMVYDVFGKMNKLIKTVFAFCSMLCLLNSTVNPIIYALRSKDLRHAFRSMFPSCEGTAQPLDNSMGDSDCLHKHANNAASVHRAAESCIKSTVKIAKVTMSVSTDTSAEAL
human CB2 receptors, sequence (P34972 whole entry): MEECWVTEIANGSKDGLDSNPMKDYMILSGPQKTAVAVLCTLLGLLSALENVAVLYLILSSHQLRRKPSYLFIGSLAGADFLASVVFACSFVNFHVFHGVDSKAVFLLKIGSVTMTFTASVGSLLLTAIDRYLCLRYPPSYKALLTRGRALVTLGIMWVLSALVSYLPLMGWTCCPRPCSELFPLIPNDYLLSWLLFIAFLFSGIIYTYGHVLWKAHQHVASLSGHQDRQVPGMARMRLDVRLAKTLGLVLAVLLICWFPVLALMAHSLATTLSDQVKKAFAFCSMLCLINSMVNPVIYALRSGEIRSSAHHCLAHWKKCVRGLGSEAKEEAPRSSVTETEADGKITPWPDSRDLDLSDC

Compound | pEC50 (human CB2 receptors) | pEC50 (human CB1 receptors)
CC(C)C[C@@H](CO)NC(=O)c1ccc(N2CCCC2)c(OCC2CC2)n1 [Example 14, 6-Cyclopropylmethoxy-5-pyrrolidin-1-yl-pyridine-2-carboxylic acid ((S)-1-hydroxymethyl-3-methyl-butyl)-amide] | 8.52 | < 5.00
Cc1nc([C@](C)(CC2CC2)NC(=O)c2ccc(C3CC3)c(OCC3CC3)n2)no1 [Example 357, 5-Cyclopropyl-6-cyclopropylmethoxy-pyridine-2-carboxylic acid [(+)-2-cyclopropyl-1-methyl-1-(5-methyl-[1,2,4]oxadiazol-3-yl)-ethyl]-amide] | 8.82 | 6.70
CCC(CC)(NC(=O)c1ccc(C2CC2)c(S(=O)(=O)CC(C)C)n1)C(=O)NC [Example 367, 5-Cyclopropyl-6-(2-methyl-propane-1-sulfonyl)-pyridine-2-carboxylic acid (1-ethyl-1-methylcarbamoyl-propyl)-amide] | 6.71 | < 5.00
Cc1nc(C(C)(C)NC(=O)c2ccc(C3CC3)c(OC(C)C(F)(F)F)n2)no1 (centres unmarked) [Example 373, 5-Cyclopropyl-6-(2,2,2-trifluoro-1-methyl-ethoxy)-pyridine-2-carboxylic acid [1-methyl-1-(5-methyl-[1,2,4]oxadiazol-3-yl)-ethyl]-amide] | 6.90 | < 5.00
Cc1nc([C@](C)(NC(=O)c2ccc(C3CC3)c(OCC3CC3)n2)C2CC2)no1 [Example 324] | 8.39 | < 5.00
CCC(CC)(NC(=O)c1ccc(Cl)c(OCC2CC2)n1)C(=O)NC [Example 109, 5-Chloro-6-cyclopropylmethoxy-pyridine-2-carboxylic acid (1-ethyl-1-methylcarbamoyl-propyl)-amide] | 6.75 | < 5.00
CCC(CC)(NC(=O)c1ccc(Cl)c(-c2cccc(Cl)c2)n1)C(=O)NC [Example 91, 5-Chloro-6-(3-chloro-phenyl)-pyridine-2-carboxylic acid (1-ethyl-1-methylcarbamoyl-propyl)-amide] | 6.20 | < 5.00
CCC(CC)(NC(=O)c1ccc(C(F)(F)F)c(OCC2CCOCC2)n1)C(=O)NC [Example 253, 6-(Tetrahydro-pyran-4-ylmethoxy)-5-trifluoromethyl-pyridine-2-carboxylic acid (1-ethyl-1-methylcarbamoyl-propyl)-amide] | 7.84 | < 5.00
CCC(CC)(NC(=O)c1ccc(N(CC(F)(F)F)CC(F)(F)F)c(OCC2CC2)n1)C(=O)NC [Example 165, 5-[Bis-(2,2,2-trifluoro-ethyl)-amino]-6-cyclopropylmethoxy-pyridine-2-carboxylic acid (1-ethyl-1-methylcarbamoyl-propyl)-amide] | 8.14 | 5.92
CCC(CC)(NC(=O)c1ccc(C)c(-c2cccc(Cl)c2)n1)C(=O)NC [Example 70, 6-(3-Chloro-phenyl)-5-methyl-pyridine-2-carboxylic acid (1-ethyl-1-methylcarbamoyl-propyl)-amide] | 7.24 | < 5.00
NC(=O)[C@H](CC1CC1)NC(=O)c1ccc(C2CCOC2)c(OCC2CC2)n1 (stereo partly drawn) [Example 136, 6-Cyclopropylmethoxy-5-(tetrahydro-furan-3-yl)-pyridine-2-carboxylic acid ((S)-1-carbamoyl-2-cyclopropyl-ethyl)-amide] | 7.18 | < 5.00
O=C(NCc1ccccn1)c1ccc(N2CC(F)(F)C2)c(OCC2CC2)n1 [Example 147, 6-Cyclopropylmethoxy-5-(3,3-difluoro-azetidin-1-yl)-pyridine-2-carboxylic acid (pyridin-2-ylmethyl)-amide] | 6.04 | < 5.00
CC(C)(NC(=O)c1ccc(N2CCCS2(=O)=O)c(OCC2CC2)n1)c1nccs1 [Example 77, 6-(Cyclopropylmethoxy)-5-(1,1-dioxido-isothiazolidin-2-yl)-N-[2-(1,3-thiazol-2-yl)propan-2-yl]pyridine-2-carboxamide] | 5.85 | < 5.00
CN(C)C(=O)C(NC(=O)c1ccc(N2CC(F)(F)C2)c(OCC2CC2)n1)c1ccccc1 (centres unmarked) [Example 255, 6-Cyclopropylmethoxy-5-(3,3-difluoro-azetidin-1-yl)-pyridine-2-carboxylic acid (dimethylcarbamoyl-phenyl-methyl)-amide] | 7.21 | < 5.00
CCOC(=O)C(CC)(CC)NC(=O)c1ccc(N2CCCC2)c(OCC2CC2)n1 [Example 289, 2-[(6-Cyclopropylmethoxy-5-pyrrolidin-1-yl-pyridine-2-carbonyl)-amino]-2-ethyl-butyric acid ethyl ester] | 8.85 | 6.63
O=C(NC1CCCOC1)c1cccc(-c2cccc(Cl)c2)n1 (centres unmarked) [Example 30, 6-(3-Chloro-phenyl)-pyridine-2-carboxylic acid (tetrahydro-pyran-3-yl)-amide] | 6.18 | < 5.00
Cc1nc([C@@](C)(NC(=O)c2ccc(C3CC3)c(OCC3CC3)n2)C2CC2)no1 [Example 323, 5-Cyclopropyl-6-cyclopropylmethoxy-pyridine-2-carboxylic acid [(+)-1-cyclopropyl-1-(5-methyl-[1,2,4]oxadiazol-3-yl)-ethyl]-amide] | 9.05 | 6.74
CCC(CC)(NC(=O)c1ccc(C2CC2)c(OCC2CC2)n1)C(=O)OC [Example 251, 2-[(5-Cyclopropyl-6-cyclopropylmethoxy-pyridine-2-carbonyl)-amino]-2-ethyl-butyric acid methyl ester] | 8.85 | 7.04
CCC(CC)(NC(=O)c1ccc(N2CC(F)(F)C2)c(OCC2CC2)n1)C(=O)O [Example 207, 2-(6-(Cyclopropylmethoxy)-5-(3,3-difluoroazetidin-1-yl)picolinamido)-2-ethylbutanoic acid] | 7.84 | < 5.00
O=C(NC1CCOCC1)c1cccc(-c2cccc(Cl)c2)n1 [Example 21, 6-(3-Chloro-phenyl)-pyridine-2-carboxylic acid (tetrahydro-pyran-4-yl)-amide] | 6.66 | < 5.00
CC(C)(C)OC(=O)N(CC1CC1)NC(=O)c1ccc(C2CC2)c(OCC2CC2)n1 [Example 363, N′-(5-Cyclopropyl-6-cyclopropylmethoxy-pyridine-2-carbonyl)-N-cyclopropylmethyl-hydrazinecarboxylic acid tert-butyl ester] | 7.42 | < 5.00
O=C(c1ccc(N2CCCC2)c(OCC2CC2)n1)N1CC2(COC2)C1 [Example 31, (6-Cyclopropylmethoxy-5-pyrrolidin-1-yl-pyridin-2-yl)-(2-oxa-6-aza-spiro[3.3]hept-6-yl)-methanone] | 6.37 | < 5.00
O=C(c1ccc(N2CC(F)(F)C2)c(OCC2CC2)n1)N1CCC[C@H]1CO [Example 149, [6-Cyclopropylmethoxy-5-(3,3-difluoro-azetidin-1-yl)-pyridin-2-yl]-((S)-2-hydroxymethyl-pyrrolidin-1-yl)-methanone] | 6.76 | < 5.00
Cc1ccc(C(=O)N[C@@H](CC2CC2)c2nccs2)nc1OCC1CC1 [Example 65, 6-Cyclopropylmethoxy-5-methyl-pyridine-2-carboxylic acid ((S)-2-cyclopropyl-1-thiazol-2-yl-ethyl)-amide] | 7.47 | < 5.00
O=C(N[C@@H](c1ccccn1)C(F)(F)F)c1ccc(C2CC2)c(OCC2CC2)n1 [Example 240, 5-Cyclopropyl-6-cyclopropylmethoxy-pyridine-2-carboxylic acid ((−)-2,2,2-trifluoro-1-pyridin-2-yl-ethyl)-amide] | 7.18 | < 5.00
CNC(=O)[C@@H](NC(=O)c1ccc(Br)c(OCC2CCCO2)n1)C(C)(C)C (stereo partly drawn) [Example 188, 5-Bromo-6-(tetrahydro-furan-2-ylmethoxy)-pyridine-2-carboxylic acid ((S)-2,2-dimethyl-1-methylcarbamoyl-propyl)-amide] | 8.30 | 6.43
Cc1nc([C@H](CC2CC2)NC(=O)c2cccc(-c3ccc(F)c(C(F)(F)F)c3)n2)no1 [Example 348, 6-(4-Fluoro-3-trifluoromethyl-phenyl)-pyridine-2-carboxylic acid [(S)-2-cyclopropyl-1-(5-methyl-[1,2,4]oxadiazol-3-yl)-ethyl]-amide] | 7.61 | < 5.00
Cc1nc(C(C)(C)NC(=O)c2ccc(N3CC(F)(F)C3)c(OCC3CC3)n2)no1 [Example 102, 6-Cyclopropylmethoxy-5-(3,3-difluoro-azetidin-1-yl)-pyridine-2-carboxylic acid [1-methyl-1-(5-methyl-[1,2,4]oxadiazol-3-yl)-ethyl]-amide] | 7.20 | < 5.00
